# Assay results taken from patent US9212204B2, “Treatment of rett syndrome using glycyl-L-2-methylprolyl-L-glutamic acid” (priority 2011, dated 2015).
# Non-standard residues stand in square brackets, D forms with d. Residues, ends and D or L forms follow the SMILES beside them. αMeP = C[C@@]1(C(=O)O)CCCN1
# Experiments:
# [1] = tested on: subjects with Rett Syndrome; experiment: Placebo controlled study in subjects with Rett Syndrome; format: in vivo, human
# From the text: Thirty subjects with Rett Syndrome are recruited, Subjects are female and aged between […] (Mean=12.1 SD=4.4). All subjects have an IQ<60 and mutations of the MECP2 gene. Subjects also show ether spike activity in the EEG or an increase in lower frequency bands of the BEG as detected by Fast Fourier Transform (FFT). Subjects are instructed that concomitant medications are to be stable for at least six weeks prior to study. Subjects receiving medication to treat signs of inattention are tested in the morning and instructed to take their medication in the afternoon. Subjects with QTc interval >451 msec are excluded.
# The study is a randomized double blind placebo controlled parallel study with three doses of either placebo, 10 mg/kg T.I.D oral G-2-MePE for five days, or 30 mg/kg T.I.D. oral G-2-MePE.
# Subjects are tested at baseline using the following instruments: The Rett Syndrome Natural History/Clinical Severity Scale, Aberrant Behavior Checklist Community Edition (ABC), Vinelands, Clinical Global Impression of Severity (CGI-S) and their carers completed the Caregiver Strain Questionnaire (CSQ).
# Subjects are brought into clinic on an inpatient basis to enable initial baseline recordings of EEG, ECG and respiratory rate continuously for 24 hours using polysomnography technology. Hand movements are also recorded using the Q-Sensor™. Derived EEG measures include: spikes per unit time in the EEG, overall power of frequency bands of the EEG, QTc and heart rate variability (HRV), and respiratory irregularities.
# Adverse events are also recorded using standard safety measures and the SMURF elicitation of adverse events
# Statistically, the effect of treatment with G-2-MePE is analysed by conducting a repeated analysis of covariance (ANCOVA) on the effect of treatment on change from baseline scores.
# [2] = tested on: layer 5 cortical neurons of MeCP2-/y mice; experiment: Whole-cell recordings of spontaneous EPSCs in acute brain slices; format: in vivo, mouse; settings: 20 mg/kg i.p. daily P15 to P28-P32; vs MeCP2-/y mice treated with vehicle
# Description: For the survival measurements, the nocturnal activity analysis and the immunoblot analysis, G-2-MePE (synthesised Albany Molecular Research Inc. (Albany, N.Y.) and supplied by Neuren Pharmaceuticals Limited) is administered daily via intra-peritoneal injections (20 mg/kg, vehicle=saline, 0.01% BSA). The treatment starts at PI 5 and is maintained throughout the course of the experiments. For intracellular physiology experiments, the mice are injected daily with G-2-MePE (20 mg/kg body weight, vehicle=saline, 0.01% BSA) for 2 weeks, from P15 to P28-P32 when they are used for acute slice preparation. For optical imaging experiments, mice are injected with G-2-MePE (20 mg/kg body weight, vehicle=saline, 0.01% BSA) daily from the day of the lid suture to the day of imaging. […]
# Borosilicate pipettes (3-5 MΩ, WP1) are pulled using a Sutter P-80 puller (Sutter Instruments). Cells are visualized with an Achroplan 40× water-immersion lens with infrared-DIC optics (Zeiss) and detected with an infrared camera (Hamamatsu) projecting to a video monitor. […] Then in current clamp ˜10 pulses (500 ms, 40-140 pA at 10 pA increments), are applied to quantify evoked firing rates and cellular excitability. […] Analysis is performed using a custom software package written in Matlab, with all events detected according to automated thresholds and blindly verified for each event individually by the experimenter. […]
# central nervous system = settings: after oral administration; cited from earlier work
# [3] = tested on: hippocampal CA1 neurons of mecp2 null mutant mice; experiment: Golgi staining, dendrite morphology in mecp2 knockout mice; format: in vivo, mouse
# Description: We assess the effects of G-2-MePE treatment on dendrites. Transgenic mecp2 knockout mice (n=15 to 20) were administered G-2-MePE intraperitoneally at a dose of 20 mg/kg once daily. Following sacrifice dendritic spine density, spine length and aborization were examined after Golgi staining after nine weeks, as per the Table 1 below:
# Dendritic length was assessed by distance from the soma of representative hippocampal CA1 neurons from 9 week old male mecp2 null mutant mice treated with either saline (3 neurons analysed from 3 separate mice, n=9) or G-2-MePE (20 mg/kg i.p. 1/day, from week 4; 3 neurons analysed from 3 separate mice, n=9).
# [4] = 30 mg/kg T.I.D. oral, compared to placebo
# [5] = 20 mg/kg i.p. once daily, 9 weeks of age
smiles,measurement,setting,value
"C[C@@]1(C(=O)N[C@@H](CCC(=O)O)C(=O)O)CCCN1C(=O)CN [Example G-2-MePE, Glycyl-L-2-methylprolyl-L-glutamic acid] (H-Gly-[αMeP]-Glu-OH)",power of the delta band of the EEG,[1]; [4],decreases
same,spike activity,[1]; [4],decreases
same,"subscales Nonverbal Communication, Epilepsy/Seizures, Hand use",[1]; [4],significant effects
same,Serious Adverse Events,[1]; 10 or 30 mg/kg T.I.D. oral,No Serious Adverse Events
same,heart rate variability,[1]; 10 or 30 mg/kg T.I.D. oral,No effects
same,increases in QTC,[1]; 10 or 30 mg/kg T.I.D. oral,No instances of increases
same,respiratory rate,[1]; 10 or 30 mg/kg T.I.D. oral,No effects
same,adverse events,"[1]; 10 or 30 mg/kg T.I.D. oral, vs placebo",no more adverse events than are present during treatment with placebo
same,tolerability,[1]; Rett Syndrome population,well tolerated
same,Rett Syndrome Natural History/Clinical Severity Score,[1]; overall,no significant effect overall
same,spikes per unit time in the EEG,[1]; overall treatment effect,significant overall reduction
same,total hand movements per twenty-four hour period (Q-Sensor),[1]; significant for the 30 mg/kg T.I.D. dose compared to placebo,reduces
same,spontaneous EPSC amplitude,[2],significantly larger
same,activity in the central nervous system,central nervous system,active
same,dendritic length as a function of distance from the soma,"[3]; 20 mg/kg i.p. 1/day from week 4, vs saline, FIG. 24",longer dendrites
same,dendritic arborization,[3]; [5],improved
same,dendritic spine length,[3]; [5],increased
